# Reference: US4464388A, “Use of prostaglandin analogues to treat cytodamage” (priority 1982, dated 1984)
# Where two headings read alike, the source gives them in different places.
# Experiments:
# [1] = tested on: carbon tetrachloride (CCl4) induced liver damage; assay: Effect on carbon tetrachloride (CCl4) induced liver damage (liver cell necrosis type); format: in vivo, Male Wistar rats; settings: for inhibition in vivo at 0.1 mg/kg / inhibition in vivo at 0.02 mg/kg / inhibition in vivo at 0.5 mg/kg / inhibition in vivo at 0.05 mg/kg / inhibition in vivo at 1 mg/kg / inhibition in vivo at 1.5 mg/kg: Rattus norvegicus, 24 h; for inhibition in vivo at 0.02 mg/kg: 20 μg/kg; for inhibition in vivo at 0.5 mg/kg: 500 μg/kg; for inhibition in vivo at 0.05 mg/kg: 50 μg/kg; for inhibition in vivo at 1 mg/kg: 1000 μg/kg; for inhibition in vivo at 1.5 mg/kg: 1500 μg/kg
# Method: Effect on carbon tetrachloride (CCl4) induced liver damage (liver cell necrosis type)
# Male Wistar rats weighing 180-220 g were used. Rats were dosed intraperitoneally with CCl4 dissolved in olive oil (5%, w/v) at a volume of 500 μl/kg after 18 hr starvation. The compound under test was administered orally (p.o.) or subcutaneously (s.c.) 6 and 12 hr after CCl4 injection in rats and blood was collected after 24 hr. Plasma glutamic oxaloacetic transaminase (GOT) and glutamic pyruvic transaminase (GPT) activities were determined by ultraviolet absorbance methods (optimised method based on the recommendations of the Deutsche Gesellschaft fur Klinische Chemie). The effects of the compounds tested were assessed by the inhibition rate in comparison with controls. Inhibition rate was calculated by the following formula. [formula] The results obtained are shown in the following Tables 1A and 1B for compounds of the general formula: [drawing 10] wherein R, R^1 and --X--Y--Z-- have the meanings indicated.
# In Tables 1A, 1B and 2 to 5 hereinafter the dose shown in the amount given at each administration of the compound under test.
# Acute toxicity test = settings: mouse, in vivo; oral, mice observed for 14 days
# Method: Male JCL-ICR mice (non SPF mice) from 7 weeks of age were used. The compound under test was dissolved in 5% v/v ethanol containing 0.4% w/v Tween 80 (Tween is a registered trademark) and administered orally to the mice. […] The deaths observed were all within 72 hrs after treatment.
# artery = settings: cited from earlier work
# [2] = tested on: blood platelet aggregation; settings: cited from earlier work
# [3] = po, p.o., 100 μg/kg, plasma GOT after 24 hr, read-out: inhibition rate GOT
# [4] = po, p.o., 100 μg/kg, plasma GPT after 24 hr, read-out: inhibition rate GPT
# [5] = sc, s.c., plasma GOT after 24 hr, read-out: inhibition rate GOT
# [6] = sc, s.c., plasma GPT after 24 hr, read-out: inhibition rate GPT
# [7] = po, p.o., plasma GOT after 24 hr, read-out: inhibition rate GOT
# [8] = po, p.o., plasma GPT after 24 hr, read-out: inhibition rate GPT
smiles,measurement,setting,value
"CCCCC1CCC([C@H](O)/C=C/[C@H]2[C@H](O)CC(=O)[C@@H]2CC(=O)CCCCC(=O)OC)C1 (single isomer, unassigned) [Compound 8, 15-(3-Butylcyclopentyl)-16,17,18,19,20-pentanor-6-oxo-PGE1 methyl ester]",inhibition in vivo at 0.1 mg/kg,[1]; [3],77.7%
same,inhibition in vivo at 0.1 mg/kg,[1]; [4],73.7%
same,inhibition in vivo at 0.02 mg/kg,[1]; [5],44.4%
same,inhibition in vivo at 0.02 mg/kg,[1]; [6],39.3%
same,LD50 at 336 h,Acute toxicity test,10 to 20 mg/kg
"CCCC1CCC([C@H](O)/C=C/[C@H]2[C@H](O)CC(=O)[C@@H]2CC(=O)CCCCC(=O)OC)C1 (single isomer, unassigned) [Compound 12, 15-(3-Propylcyclopentyl)-16,17,18,19,20-pentanor-6-oxo-PGE1 methyl ester]",inhibition rate GOT,"[1]; p.o., 100 μg/kg, plasma GOT after 24 hr",25.4%
same,inhibition rate GPT,"[1]; p.o., 100 μg/kg, plasma GPT after 24 hr",22.2%
"CCCC1CCC([C@H](O)/C=C/[C@@H]2[C@H]3CC(CCCCC(=O)OC)=N[C@H]3C[C@H]2O)C1 (single isomer, unassigned) [Compound 14, 15-(3-Propylcyclopentyl)-16,17,18,19,20-pentanor-6,9α-nitrilo-PGI1 methyl ester]",inhibition in vivo at 0.5 mg/kg,[1]; [7],39.8%
same,inhibition in vivo at 0.5 mg/kg,[1]; [8],20.8%
same,inhibition in vivo at 0.5 mg/kg,[1]; [5],68.6%
same,inhibition in vivo at 0.5 mg/kg,[1]; [6],64.2%
same,LD50 at 336 h,Acute toxicity test,40 to 100 mg/kg
"CCC1CC([C@H](O)/C=C/[C@H]2[C@H](O)CC(=O)[C@@H]2CC(=O)CCCCC(=O)OC)C1 (stereo partly shown) [Compound 1, 15-(3-Ethylcyclobutyl)-16,17,18,19 20-pentanor-6-oxo-PGE1 methyl ester]",inhibition in vivo at 0.05 mg/kg,[1]; [5],21%
same,inhibition in vivo at 0.05 mg/kg,[1]; [6],0%
"CCCC1CC([C@H](O)/C=C/[C@H]2[C@H](O)CC(=O)[C@@H]2CC(=O)CCCCC(=O)OC)C1 (stereo partly shown) [Compound 2, 15-(3-Propylcyclobutyl)-16,17,18,19,20-pentanor-6-oxo-PGE1 methyl ester]",inhibition in vivo at 0.05 mg/kg,[1]; [5],52.4%
same,inhibition in vivo at 0.05 mg/kg,[1]; [6],17.3%
"COC(=O)CCCCC(=O)C[C@H]1C(=O)C[C@@H](O)[C@@H]1/C=C/[C@@H](O)C1CCCC1 [Compound 3, 15-Cyclopentyl-16,17,18,19,20-pentanor-6-oxo-PGE1 methyl ester]",inhibition in vivo at 0.1 mg/kg,[1]; [3],19%
same,inhibition in vivo at 0.1 mg/kg,[1]; [4],30.5%
same,LD50 at 336 h,Acute toxicity test,10 to 20 mg/kg
"CCCC1CCC([C@H](O)/C=C/[C@H]2[C@H](O)CC(=O)[C@@H]2CC(=O)CCCCC(=O)OC)C1 (stereo partly shown) [Compound 4, 15-(3-Propylcyclopentyl)-16,17,18,19,20-pentanor-6-oxo-PGE1 methyl ester]",inhibition in vivo at 0.1 mg/kg,[1]; [3],77%
same,inhibition in vivo at 0.1 mg/kg,[1]; [4],51.5%
"CCCC1CCC([C@H](O)/C=C/[C@H]2[C@H](O)CC(=O)[C@@H]2CC(=O)CCCCC(=O)O)C1 (stereo partly shown) [Compound 5, 15-(3-Propylcyclopentyl)-16,17,18,19,20-pentanor-6-oxo-PGE1]",inhibition in vivo at 0.1 mg/kg,[1]; [3],32.6%
same,inhibition in vivo at 0.1 mg/kg,[1]; [4],44.5%
"CCCCC1CCC([C@H](O)/C=C/[C@H]2[C@H](O)CC(=O)[C@@H]2CC(=O)CCCCC(=O)OC)C1 (stereo partly shown) [Compound 7, 15-(3-Butylcyclopentyl)-16,17,18,19,20-pentanor-6-oxo-PGE1 methyl ester]",inhibition in vivo at 0.1 mg/kg,[1]; [3],62.7%
same,inhibition in vivo at 0.1 mg/kg,[1]; [4],55.1%
"COC(=O)CCCCC(=O)C[C@H]1C(=O)C[C@@H](O)[C@@H]1/C=C/[C@@H](O)C1CCC(C)CC1 (stereo partly shown) [Compound 9, 15-(4-Methylcyclohexyl)-16,17,18,19,20-pentanor-6-oxo-PGE1 methyl ester]",inhibition in vivo at 0.1 mg/kg,[1]; [3],21%
same,inhibition in vivo at 0.1 mg/kg,[1]; [4],0%
same,inhibition in vivo at 0.05 mg/kg,[1]; [5],13.1%
same,inhibition in vivo at 0.05 mg/kg,[1]; [6],8.8%
"CCC1CCC([C@H](O)/C=C/[C@H]2[C@H](O)CC(=O)[C@@H]2CC(=O)CCCCC(=O)OC)CC1 (stereo partly shown) [Compound 10, 15-(4-Ethylcyclohexyl)-16,17,18,19,20-pentanor-6-oxo-PGE1 methyl ester]",inhibition in vivo at 0.05 mg/kg,[1]; [5],35.6%
same,inhibition in vivo at 0.05 mg/kg,[1]; [6],12.2%
"CCCC1CCC([C@H](O)/C=C/[C@H]2[C@H](O)CC(=O)[C@@H]2CC(=O)CCCCC(=O)OC)CC1 (stereo partly shown) [Compound 11, 15-(4-Propylcyclohexyl)-16,17,18,19,20-pentanor-6-oxo-PGE1 methyl ester]",inhibition in vivo at 0.05 mg/kg,[1]; [5],48.5%
same,inhibition in vivo at 0.05 mg/kg,[1]; [6],45.1%
"CCCC1CCC([C@H](O)/C=C/[C@@H]2[C@H]3CC(CCCCC(=O)OC)=N[C@H]3C[C@H]2O)C1 (stereo partly drawn) [Compound 13, 15-(3-Propylcyclopentyl)-16,17,18,19,20-pentanor-6,9α-nitrilo-PGI1 methyl ester]",inhibition in vivo at 1 mg/kg,[1]; [7],46%
same,inhibition in vivo at 1 mg/kg,[1]; [8],32.5%
"CCCCC1CCC([C@H](O)/C=C/[C@@H]2[C@H]3CC(CCCCC(=O)OC)=N[C@H]3C[C@H]2O)C1 (stereo partly drawn) [Compound 15, 15-(3-Butylcyclopentyl)-16,17,18,19,20-pentanor-6,9α-nitrilo-PGI1 methyl ester]",inhibition in vivo at 1 mg/kg,[1]; [7],45.5%
same,inhibition in vivo at 1 mg/kg,[1]; [8],15.6%
"CCCC1CCC([C@H](O)/C=C/[C@@H]2[C@H]3CC(CCCCC(=O)OC)O[C@H]3C[C@H]2O)C1 (stereo partly shown) [Compound 16, 15-(3-Propylcyclopentyl)-16,17,18,19,20-pentanor-PGI1 methyl ester]",inhibition in vivo at 1.5 mg/kg,[1]; [7],51%
same,inhibition in vivo at 1.5 mg/kg,[1]; [8],53%
"CCCC1CCC([C@H](O)/C=C/[C@@H]2[C@H]3C[C@H](CCCCC(=O)OC)O[C@H]3C[C@H]2O)C1 (stereo partly drawn) [Compound 17, (6S)-15-(3-propylcyclopentyl)-16,17,18,19,20-pentanor-PGI1 methyl ester]",inhibition in vivo at 1 mg/kg,[1]; [7],32.9%
same,inhibition in vivo at 1 mg/kg,[1]; [8],32%
CCCCC[C@H](O)/C=C/[C@H]1O[C@H]2C[C@H](O2)[C@@H]1C/C=C\CCCC(=O)O [thromboxane A2],activity on the artery,artery,contracting activity
same,effect on blood platelet aggregation,[2],aggregating activity
